Data: US5128448A, “CCK analogs with appetite regulating activity” (Hoffman-La Roche Inc., priority 1990, dated 1992)
Non-standard residues stand in square brackets, D forms with d. Residues, ends and D or L forms follow the SMILES beside them. sY = N[C@@H](Cc1ccc(OS(=O)(=O)O)cc1)C(=O)O; 2Nal = N[C@@H](Cc1ccc2ccccc2c1)C(=O)O; Cha = N[C@@H](CC1CCCCC1)C(=O)O

Molecular target: Human neutral metalloendopeptidase (Homo sapiens, UniProt P08473)
Experiment: Degradation by human neutral metalloendopeptidase (HPLC)
Assay type: in vitro ADME
Settings: for % Degradation by Heights: 37° C., tris-HCl pH 7.6; for No. of Peaks: HPLC
Experimental: Human neutral metalloendopeptidase (0.01 mg) and 5 nmol of peptide were incubated in […] tris-HCl buffer (pH 7.6) and at 37° C. for varying periods of time. The degradation of the peptide was monitored by analytical HPLC on a 5 micron Adsorbosphere-ODS column with 0-50% CH3 CN gradient in 0.1N potassium phosphate buffer, pH 3.0, with UV detection at 210 nm. Rates are based on presumed production of Asp-Tyr(SO3 H)-Met-Gly for CCK-8 and Ac-Tyr(SO3 H)-Met-Gly for the compound of example 73.

Sequence of Human neutral metalloendopeptidase (P08473 whole entry): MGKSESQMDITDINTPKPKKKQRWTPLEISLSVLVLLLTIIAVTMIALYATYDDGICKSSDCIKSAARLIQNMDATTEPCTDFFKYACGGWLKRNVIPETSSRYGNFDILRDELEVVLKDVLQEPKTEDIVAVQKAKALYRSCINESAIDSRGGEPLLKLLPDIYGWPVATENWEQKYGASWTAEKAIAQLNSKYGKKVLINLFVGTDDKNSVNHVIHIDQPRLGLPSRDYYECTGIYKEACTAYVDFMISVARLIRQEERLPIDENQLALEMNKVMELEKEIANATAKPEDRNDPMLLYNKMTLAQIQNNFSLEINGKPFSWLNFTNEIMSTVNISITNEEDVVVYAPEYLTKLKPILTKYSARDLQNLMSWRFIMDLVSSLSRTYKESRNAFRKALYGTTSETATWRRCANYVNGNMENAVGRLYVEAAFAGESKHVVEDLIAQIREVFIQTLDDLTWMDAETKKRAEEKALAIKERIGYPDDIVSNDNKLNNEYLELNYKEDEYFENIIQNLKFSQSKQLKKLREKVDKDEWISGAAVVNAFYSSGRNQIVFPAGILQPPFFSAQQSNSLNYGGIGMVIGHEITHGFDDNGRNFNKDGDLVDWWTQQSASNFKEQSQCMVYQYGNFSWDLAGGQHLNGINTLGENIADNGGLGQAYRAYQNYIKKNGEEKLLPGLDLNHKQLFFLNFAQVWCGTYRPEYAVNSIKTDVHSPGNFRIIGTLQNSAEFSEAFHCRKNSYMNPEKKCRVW

% Degradation by Heights (time of incubation 120 min) [%]	% Degradation by Heights (time of incubation 240 min) [%]	No. of Peaks (time of incubation 240 min, one peak detected and one peak that coeluted with substrate)	Compound	% Degradation by Heights (time of incubation 0 min) [%]	% Degradation by Heights (time of incubation 15 min) [%]	% Degradation by Heights (time of incubation 30 min) [%]	% Degradation by Heights (time of incubation 60 min) [%]	No. of Peaks (time of incubation 60 min)
			CSCC[C@H](NC(=O)[C@H](Cc1ccc(OS(=O)(=O)O)cc1)NC(=O)[C@@H](N)CC(=O)O)C(=O)NCC(=O)N[C@@H](Cc1c[nH]c2ccccc12)C(=O)N[C@@H](CCSC)C(=O)N[C@@H](CC(=O)O)C(=O)N[C@@H](Cc1ccccc1)C(N)=O [CCK-8, Asp^26 -Tyr-(SO3 H)^27 -Met^28 -Gly^29 -Trp^30 -Met^31 -Asp^32 -Phe^33 -NH2]	0	6.2	33.2	69.7	4
27.0	56.4	2	CSCC[C@H](NC(=O)[C@H](Cc1ccc(OS(=O)(=O)O)cc1)NC(C)=O)C(=O)NCC(=O)N[C@@H](Cc1ccc2ccccc2c1)C(=O)N[C@@H](CCSC)C(=O)N[C@@H](CC(=O)O)C(=O)N[C@@H](CC1CCCCC1)C(N)=O [Example 73, Ac-Tyr(SO3 H)-Met-Gly-(2)Nal-Met-Asp-Cyclohexylalanine-NH2] (Ac-[sY]MG[2Nal]MD[Cha]-NH2)	0			10.0	
